Test results published in PMC10889512, “Pyrimidine Schiff Bases: Synthesis, Structural Characterization and Recent Studies on Biological Activities” (International Journal of Molecular Sciences, 2024).

Columns and labels:
[1] = system: A172; experiment: Microscopic observations, Hoechst 33342 stain, A172; type: cell-based, human; settings: A172, at IC50, 24, 48 and 72 h
Method: In order to obtain information about cells and nuclei morphology, fluorescence microscopy was used. Briefly, after the incubation of A172 and AGS with compound 4b (at three time periods, namely 24, 48, and 72 h) cells were stained with Hoechst 33342 dye, which binds to DNA. Phase-contrast observations were also performed. […] Also, the cell membrane should be intact with a visible halo around the cells. In necrotic cells, the nuclei edges tend to be less clearly defined, and Hoechst 33342 results in a decreased fluorescence signal. This effect can be seen in a1,2 (A172) and b1,2 (AGS). […] To visualize morphological changes which occurred in the treated cells, microscopic observations were conducted using Hoechst 33342 stain. It is a blue fluorescent stain which allows observations of nuclei in eukaryotic cells. Also observations in bright fields were performed. Cells were stained according to the manufacturer’s protocol. Briefly, cells were plated in 12-well plates at a density of 1 × 10^5 cells/well and were incubated for 24 h at 37 °C, 5% CO2 in a humidified atmosphere. Next, cells were treated with 4b at an IC50 and further incubated for 24, 48, and 72 h. For microscopic observations cells were collected, washed with PBS and stained for 15 min with 1 µg/mL Hoechst 33342 dye. […]

[2] = system: C. albicans 10231; experiment: Antifungal activity assay, microdilution; type: cell-based, Candida albicans; settings: concentration range from 0.5 µg/mL to 256 µg/mL
Method: (§1) In vitro antimicrobial and antifungal activity was screened using microdilution and modified Richard’s medium. The assay was performed for compounds 4a, 4b, 4c, and 4d with seven reference microbial strains from ATTC (E. coli 25922, S. aureus 43300, K. pneumoniae 700603, A. baumannii 19606, P. aeruginosa 27853, E. faecalis 29212, and C. albicans 10231).
(§2) Seven reference strains from the ATCC collection (Escherichia coli 25922, Staphylococcus aureus 43300, Klebsiella pneumoniae 13883, Acinetobacter baumannii 19606, Pseudomonas aeruginosa 27853, Enterococcus faecalis 29212, and Candida albicans 10231) were used. The assay was performed according to a modified version of Richard et al.’s protocol and ISO standards 20776-1:2019 and 16256:2021 [78, 79]. Microdilution with spectrophotometric measurement was used to calculate MIC50 (minimal inhibitory concentration which decreased the microorganisms’ viability to 50%) values. Briefly, compounds were prepared 100× concentrated in DMSO, and during the whole experiment, they were diluted to 1× with TSB. Serial dilutions of tested compounds were made directly on plates at a concentration range of 0.5 to 256 µg/mL. Microorganisms were incubated for 24 h at 37 °C (bacteria) or 25 °C (yeast) on Petri dishes with TSA. The bacteria/yeast suspensions were prepared at a density 5 × 10^5 CFU/mL (for bacteria) or 0.5–2.5 × 10^5 CFU/mL (for yeast) with TSB. Also, appropriate controls were contained in the experiment: the positive control consisted of a specific strain in TSB, and the negative control was TSB alone. To ensure that used strains were not modified and were still responding to antibacterial/antifungal compounds established by EUCAST, additional tests were conducted with levofloxacin, gentamicin, and amphotericin B. Microplates were incubated on a shaker for 24 h at 37 ± 1 °C or 25 ± 1 °C for the bacteria and yeast strains, respectively. After the incubation, spectrophotometric measurement was performed at 580 nm. MIC50 was calculated by comparing the results obtained for experimental sets with positive controls. Next, 50 µL aliquots of 1% (m/v) TTC solution were added to each well. The plates were incubated on the shaker for 24 h at 37/25 °C. In living microbial cells, colourless TTC is converted into red formazan crystals, which allows for visual observation and MBC/MFC (minimal bactericidal/fungicidal concentration) value assessment.

[3] = system: E. coli 25922; experiment: Antimicrobial activity assay, microdilution; type: cell-based, Escherichia coli; settings: concentration range from 0.5 µg/mL to 256 µg/mL
Method: as §1, §2

[4] = system: CaCo-2; experiment: Neutral red uptake assay on CaCo-2; type: cell-based; settings: Homo sapiens; CaCo-2, 72 h treatment
Method: Based on the results obtained for the RPTEC cell line, the following concentrations of 4b–d were chosen to be applied to neoplastic cell lines: 0.1, 1, 10, 25, 50, and 100 µM. A172, AGS, CaCo-2, HeLa, and HepG2 cancer cell lines were used to perform a neutral red uptake assay. The obtained results were compared with a negative control (cell lines incubated without tested compounds), and half-maximal inhibitory concentration (IC50) values were calculated. Cell lines were plated in 96-well plates at a density of 1 × 10^4 cells/well. After 24 h incubation, which allowed the cells to attach and start to proliferate, the culture media were replaced with 4a–d dissolved in the appropriate medium at concentrations of 1, 10, 50, 100, 150 and 200 µM. […] Negative (1% DMSO in medium) and positive (1 µM staurosporine) controls were also included. Plates were incubated at 37 °C for 24, 48, and 72 h before the neutral red uptake assay. The neutral red uptake assay was performed as described by Repetto et al.. Briefly, the medium from all wells was discarded, the attached cells were washed with 100 µL PBS, and then 100 µL of neutral red working solution in medium (40 µg/mL) was added to each well. The neutral red solution was incubated overnight in the same conditions as the cells and centrifuged before being added to the cells. The plates were incubated for at least 2 h at 37 °C, 5% CO2, in a humidified atmosphere. Next, the neutral red medium was removed, and the cells were washed with 100 µL PBS. A 100 µL quantity of destain solution consisting of 50% ethanol, 1% glacial acetic acid, and deionized water was added to each well. Plates were incubated for 30 min with constant shaking on a horizontal shaker at 37 °C. Absorption was measured at 540 nm excitation. The cells’ viability was calculated by comparing results from experimental sets with negative controls according to the formula: % viability=ODtest substance−ODblind/ODnegative control−ODblind×100

IC50 [4]: > 100 µM
Structure (SMILES): Cc1nc(-c2ccccc2)nc(Nc2ccc(F)cc2)c1C=Nc1cccc(Cl)c1 [compound 4b, 5-{[(3-chlorophenyl)imino]methyl}-N-(4-fluorophenyl)-6-methyl-2-phenylpyrimidin-4-amine]
cell and nuclei morphology [1]: leads to necrosis | MIC and MBC/MFC activity [2]: Neither MIC nor MBC/MFC activity was observed | MIC and MBC/MFC activity [3]: Neither MIC nor MBC/MFC activity was observed
